# Reference: US8685936B2, “Sphingosine kinase inhibitor prodrugs” (Apogee Biotechnology Corporation, priority 2009, dated 2014)
# Experiments:
# [1] = tested on: Murine JC mammary adenocarcinoma cells; assay: Cytotoxicity, MTS cell viability assay; format: cell-based; conditions: 72 hours
# Text: FIG. 5. Inhibition of tumor cell proliferation by Compound 1 and Compound 2. Murine JC mammary adenocarcinoma cells were exposed to the indicated concentrations of either Compound 1 (▪) or Compound 2 (▴) for 72 hr. At the end of the exposure, the number of viable tumor cells was quantified using the MTS assay. Values represent the fraction of surviving cells compared with DMSO-(vehicle)-treated control cells.
# To further assess the biological efficacies of the Compounds in intact cells, Compound 1 and Compound 2 were evaluated for cytotoxicity using a murine breast cancer cell line. These experiments followed methods that have been extensively used. The cells were treated with varying doses of the test Compound for 72 hours, and then cell viability was measured using CellTiter 96® AQueous Non-Radioactive Cell Proliferation Assay (MTS) available from Promega Corporation. Values represent the mean±std. dev. percentage of cells that survive at each of the indicated concentrations of Compound 1 or Compound 2. […] However, the extent of cell killing and the potency for cell killing were greater for Compound 2 than Compound 1.
# [2] = tested on: TNBS-induced Crohn's Disease model; assay: TNBS-induced Crohn's Disease model; format: in vivo
# Experimental: FIG. 12. Effects of Compound 1 and Compound 2 on colon histology in the TNBS-induced Crohn's Disease model. On Day 0, female Sprague-Dawley rats were administered TNBS using a stainless steel catheter that was inserted into the colon (8 cm proximal to the anus; 1.0 mL of solution containing 30 mg TNBS and 20% ethanol in PBS). On Days 0-5 animals received daily oral gavage of Vehicle (described in FIG. 7) or 50 mg/kg of Compound 1 or Compound 2 in Vehicle. On Day 6, the colons were removed, weighed and scored for macroscopic damage. The distal 6 cm were transected for subsequent histology and biochemical analyses. In this model, the macroscopic score is an index of histologic damage to the colon which increases as the disease progresses.
# FIG. 13. Effects of Compound 1 and Compound 2 on colon weight in the TNBS-induced Crohn's Disease model. Colon weights were measured for the rats described in FIG. 12. Values represent the mean±std. dev. for 5-6 rats per group. In this model, colon weight increases as the disease progresses due to progressive inflammation-mediated edema.
# FIG. 14. Effects of Compound 2 on neutrophil infiltration into the colon in the TNBS-induced Crohn's Disease model. Neutrophil infiltration was evaluated in the rats described in FIG. 12. Values represent the mean±std. dev. for 5-6 rats per group. In this model, MPO activity in the colon increases as a result of neutrophil infiltration into the colon as the disease progresses.
# The trinitrobenzene sulfonic acid (TNBS) model in rats provides a rapid, reliable and reproducible IBD model that mimics the manifestations of Crohn's Disease. Application of the hapten TNBS to the colon in the presence of ethanol results in transmural infiltrative disease that is limited to the colon and appears to be an IL-12-driven, Th1-mediated immunologic response. […] TNBS induces measurable injury within 2 to 3 days, peak acute inflammation within a week, and gradual progression into chronic inflammation lasting about 2 months.
# To test the efficacy of the Compounds, groups of female Sprague-Dawley rats were administered TNBS on Day 0 and treated with vehicle (as the negative control group), Compound 1 or Compound 2 on Days 0-5 by oral gavage at a dose of 50 mg/kg/day. […] Disease progression was evaluated by macroscopic score, colon weight and colon MPO activity at sacrifice. The macroscopic score measures macroscopic damage within the distal 6 cm of the colon using a system that considers the extent of and number of ulcerations.
# [3] = tested on: mouse JC mammary adenocarcinoma tumors; assay: Antitumor activity, JC mammary adenocarcinoma tumors growing subcutaneously in Balb/c mice; format: in vivo; conditions: 50 mg/kg of Compound 2 daily for five days per week
# Experimental: FIG. 6. Antitumor activity of Compound 2 alone and in combination with gemcitabine. Murine JC mammary adenocarcinoma cells were injected subcutaneously into Balb/c mice and tumors were allowed to grow to approximately 150 mm^3. The animals were then treated with vehicle alone (▪), 1 mg/kg of gemcitabine weekly (▴), 50 mg/kg of Compound 2 daily for five days per week (▾) or a combination of gemcitabine plus Compound 2 (♦). Tumors were measured twice per week. The values shown represent the average tumor volume+/−the std. dev. for each group (n=8).
# The antitumor activity of a representative prodrug SK inhibitor was evaluated using a […] tumor model that uses the mouse JC mammary adenocarcimona cell line growing subcutaneously in immunocompetent Balb/c mice (Lee et al., Oncol Res 14: 49 (2003)). These cells express elevated levels of SK activity relative to non-transformed cells, as well as the multidrug resistance phenotype due to P-glycoprotein activity. Murine JC mammary adenocarcinoma cells were injected subcutaneously into Balb/c mice and tumors were allowed to grow to approximately 100 mm^3. The animals were then treated with vehicle alone (▪), 1 mg/kg of gemcitabine weekly (▴), 50 mg/kg of Compound 2 daily for five days per week (▾) or a combination of gemcitabine plus Compound 2 (♦). Tumors were measured twice per week. […]
# [4] = TNBS Day 0, 50 mg/kg/day oral gavage Days 0-5, Day 6, female Sprague-Dawley rats
compound,measurement,setting,value
"CC(=O)Oc1ccc(CCNC(=O)C23CC4CC(C2)CC(c2ccc(Cl)cc2)(C4)C3)cc1OC(C)=O [Compound 2, Acetic acid 2-acetoxy-5-(2-{[3-(4-chlorophenyl)-adamantane-1-carbonyl]-amino}ethyl)phenyl ester]","extent of cell killing, Compound 2 compared with Compound 1",[1],greater
same,inhibition of tumor cell proliferation (cell viability),[1],can inhibit tumor cell proliferation
same,"potency for cell killing, Compound 2 compared with Compound 1",[1],greater
same,Compound-related toxicities,"[2]; 50 mg/kg/day oral gavage Days 0-5, rats sacrificed on Day 6",no Compound-related toxicities apparent
same,Macroscopic Score of colon damage,[2]; [4],reduced the Macroscopic Score
same,colon MPO activity (granulocyte infiltration),[2]; [4],reduced MPO activity in the colon
same,colon weight,[2]; [4],reduced the elevation of the colon weight
same,tumor growth (tumor volume),[3],significant reduction of tumor growth
